Data set [1] has as its target T1, Alkaline phosphatase, tissue-nonspecific isozyme (Rattus norvegicus) (UniProt P08289).
T1 sequence (whole entry): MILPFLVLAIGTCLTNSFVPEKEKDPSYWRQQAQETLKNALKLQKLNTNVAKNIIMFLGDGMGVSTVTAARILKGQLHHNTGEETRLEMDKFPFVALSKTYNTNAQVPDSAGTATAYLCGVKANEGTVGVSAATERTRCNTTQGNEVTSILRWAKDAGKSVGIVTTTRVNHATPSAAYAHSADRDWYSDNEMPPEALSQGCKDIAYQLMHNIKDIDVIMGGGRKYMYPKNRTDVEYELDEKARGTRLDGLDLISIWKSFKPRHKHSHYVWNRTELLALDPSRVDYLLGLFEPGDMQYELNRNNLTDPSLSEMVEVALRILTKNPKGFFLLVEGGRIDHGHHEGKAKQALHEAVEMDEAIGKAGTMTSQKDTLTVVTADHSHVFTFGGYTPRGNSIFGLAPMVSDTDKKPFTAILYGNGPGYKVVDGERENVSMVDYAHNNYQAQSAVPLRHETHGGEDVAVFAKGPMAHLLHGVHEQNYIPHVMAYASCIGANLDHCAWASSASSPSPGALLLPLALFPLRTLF
Description: (§1) Hepatoprotective activity against alkaline phosphatase (ALP) for thioacetamide-induced toxicity in rats at 6 mg/kg dose for 7 days by ip administration. In kind it is functional, organism-based. More on the design: dose 6 mg/kg.

Data set [2] in a line: Hepatoprotective activity against glutamate oxaloacetate transaminase (GOT) for thioacetamide-induced toxicity in rats at 6 mg/kg dose for 7 days by ip administration. The format is functional.
For data set [3], the target named is T2, Alanine aminotransferase 1 (Rattus norvegicus) (UniProt P25409).
T2 sequence (whole entry): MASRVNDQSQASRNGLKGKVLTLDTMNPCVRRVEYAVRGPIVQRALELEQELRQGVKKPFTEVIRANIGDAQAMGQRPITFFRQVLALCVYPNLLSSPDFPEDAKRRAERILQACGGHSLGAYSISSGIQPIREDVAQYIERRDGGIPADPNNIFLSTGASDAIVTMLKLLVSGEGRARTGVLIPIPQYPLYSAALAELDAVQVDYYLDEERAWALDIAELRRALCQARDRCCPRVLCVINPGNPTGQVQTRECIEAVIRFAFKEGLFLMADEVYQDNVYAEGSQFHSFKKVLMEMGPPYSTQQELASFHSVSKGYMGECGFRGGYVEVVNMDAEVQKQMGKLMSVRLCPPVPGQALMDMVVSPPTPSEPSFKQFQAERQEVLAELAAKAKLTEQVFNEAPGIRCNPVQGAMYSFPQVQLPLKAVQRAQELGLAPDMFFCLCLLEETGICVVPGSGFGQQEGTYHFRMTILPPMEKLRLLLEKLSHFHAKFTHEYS
Put plainly: (§2) Hepatoprotective activity against glutamate pyruvate transaminase (GTP) for thioacetamide-induced toxicity in rats at 6 mg/kg dose for 7 days by ip administration. In kind it is functional, organism-based. Also on record: dose 6 mg/kg.

Data set [4] deals with Rattus norvegicus. Description: Hepatoprotective activity against bilirubin for thioacetamide-induced toxicity in rats at 6 mg/kg dose for 7 days by ip administration. In kind it is functional.
The target in data set [5] is Alkaline phosphatase, tissue-nonspecific isozyme (Rattus norvegicus) (UniProt P08289). The data set is described as §1. Also on record: dose 6 mg/kg. In kind it is functional, organism-based. The source holds these as a separate data set.
Data set [6] concerns the target Alanine aminotransferase 1 (Rattus norvegicus) (UniProt P25409). The data set is described as §2. The format is functional, organism-based. More on the design: dose 6 mg/kg. The source holds these as a separate data set.
For data set [7], the system named is Rattus norvegicus. Description: Effective dose administered perorally in rats in various models of liver injuries. In kind it is functional.
The nature of data set [8]: Lethal dose administered perorally in rats in various models of liver injuries. In kind it is toxicity. To be noted: rat, in vivo, po.

Among the data in ChEMBL document CHEMBL1128863, “6-Imino-1,3-oxazines: a new class of hepatoprotectants” (Bioorg Med Chem Lett, 1995) are Protection, ED and LD50 values, retold here.

On to `CCOC(=O)c1c(SC)nc(C)oc1=N`, for which the Protection stood at 36% in data set [1], 26% in data set [2] (route intraperitoneal), 29% in data set [3] and 11% with Rattus norvegicus [4] (route intraperitoneal).

For the molecule `CSc1nc(-c2ccccc2)oc(=N)c1C#N`, the Protection came to 30% in data set [1], 26% in data set [2] (route intraperitoneal), 19% in data set [3] and 19% in the data set on Rattus norvegicus [4] (route intraperitoneal).

Turning to `N#Cc1c(N)oc(-c2ccccc2)n/c1=N\N`, the Protection was 12% in data set [1], 17% in data set [2] (route intraperitoneal), 19% in data set [3] and 0% with Rattus norvegicus [4] (route intraperitoneal).

Turning to `CCOC(=O)c1c(SC)nc(-c2ccccc2)oc1=N`, the Protection was determined as 41% in data set [1], 33% in data set [2] (route intraperitoneal), 39% in data set [3] and 33% with Rattus norvegicus [4] (route intraperitoneal).

Turning to SILYMARIN, the Protection came out at 47% in data set [5], 50.1% in data set [2], 47.2% in data set [6] and 61% in the data set with Rattus norvegicus [4].

By LD50 is commonly meant the dose expected to kill half of the subjects tested. Read a high LD50 as lower toxicity. `COc1ccn(C)c(=O)c1C#N` [RICININE]: in the data set on Rattus norvegicus [7], the ED stood at 6 mg/kg. The same molecule returned a 50% lethal dose (LD50) in data set [8] of 80 mg/kg.

Consider `CCOC(=O)c1c(SC)nc(C(F)(F)F)oc1=N`, for which the Protection was 28% in data set [1], 66% in data set [2] (route intraperitoneal), 54% in data set [3] and 14% with Rattus norvegicus [4] (route intraperitoneal).
